# Test system: HuH-7 replicon cells 5–15 and 9–13 (HCV replication)
# Assay: Inhibition of viral replication in HuH-7 replicon cells (HCV RNA / GAPDH RNA by multiplex RT-PCR)
# Type: cell-based
# Settings: Hepatitis C virus, 72 h; inhibiting 50% of replication; HuH-7 replicon cells, 3 days; read-out: IC50
# Method in brief: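 HCV and GAPDH RNA were measured by multiplex TaqMan RT-PCR (HCV 5′ untranslated region) after 3-day compound treatment at 37 °C, final 100 μM–1 μM in 1% DMSO. Cells were plated 24 h beforehand at 7×10^3/well. Read-out: HCV-to-GAPDH ratio expressed as percent control versus untreated cells.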
row,Structure (SMILES),IC50
1,"COc1cccc(CC(=O)N/N=C/c2c(Br)ccc(OC)c2OS(=O)(=O)c2ccc(C(F)(F)F)cc2)c1 [Compound 169, 3-bromo-6-methoxy-2-((E)-{[(3-methoxyphenyl)acetyl]hydrazono}methyl)-phenyl 4-(trifluoromethyl)benzenesulfonate]",< 5 µM
2,"COc1cccc(CC(=O)N/N=C/c2c(OC)cccc2OS(=O)(=O)c2ccc(C(F)(F)F)cc2)c1 [Compound 170, 3-methoxy-2-((E)-{[(3-methoxyphenyl)acetyl]hydrazono}methyl)-phenyl 4-(trifluoromethyl)benzenesulfonate]",< 5 µM
3,"COc1cccc(CC(=O)N/N=C/c2cc(C)ccc2OS(=O)(=O)c2ccc(C(F)(F)F)cc2)c1 [Compound 171, 2-((E)-{[(3-methoxyphenyl)acetyl]hydrazono}methyl)-4-methylphenyl 4-(trifluoromethyl)benzenesulfonate]",< 5 µM
4,"COc1cccc(CC(=O)N/N=C/c2cc(F)ccc2OS(=O)(=O)c2ccc(C(F)(F)F)cc2)c1 [Compound 172, 4-fluoro-2-((E)-{[(3-methoxyphenyl)acetyl]hydrazono}methyl)-phenyl 4-(trifluoromethyl)benzenesulfonate]",< 5 µM
5,"Cc1cccc(/C=N/NC(=O)Cc2cccc(Cl)c2)c1OS(=O)(=O)c1ccc(C(F)(F)F)cc1 [Compound 173, 2-((E)-{[(3-chlorophenyl)acetyl]hydrazono}methyl)-6-methylphenyl 4-(trifluoromethyl)benzenesulfonate]",< 5 µM
6,"COc1cccc(OS(=O)(=O)c2ccc(C(F)(F)F)cc2)c1/C=N/NC(=O)Cc1cccc(Cl)c1 [Compound 174, 2-((E)-{[(3-chlorophenyl)acetyl]hydrazono}methyl)-3-methoxyphenyl 4-(trifluoromethyl)benzenesulfonate]",< 5 µM
7,"Cc1ccc(OS(=O)(=O)c2ccc(C(F)(F)F)cc2)c(/C=N/NC(=O)Cc2cccc(Cl)c2)c1 [Compound 175, 2-((E)-{[(3-chlorophenyl)acetyl]hydrazono}methyl)-4-methylphenyl 4-(trifluoromethyl)benzenesulfonate]",< 5 µM
8,"O=C(Cc1cccc(Cl)c1)N/N=C/c1cc(F)ccc1OS(=O)(=O)c1ccc(C(F)(F)F)cc1 [Compound 176, 2-((E)-{[(3-chlorophenyl)acetyl]hydrazono}methyl)-4-fluorophenyl 4-(trifluoromethyl)benzenesulfonate]",< 5 µM
9,"COc1cccc(CC(=O)N/N=C/c2ccc(C)cc2OS(=O)(=O)c2ccc(C)cc2)c1 [Compound 177, 2-((E)-{[(3-methoxyphenyl)acetyl]hydrazono}methyl)-5-methylphenyl 4-methylbenzenesulfonate]",< 5 µM
10,"COc1cccc(CC(=O)N/N=C/c2ccc(C)cc2OS(=O)(=O)c2ccc(C(F)(F)F)cc2)c1 [Compound 178, 2-((E)-{[(3-methoxyphenyl)acetyl]hydrazono}methyl)-5-methylphenyl 4-(trifluoromethyl)benzenesulfonate]",< 5 µM
11,"Cc1ccc(/C=N/NC(=O)Cc2cccc(Cl)c2)c(OS(=O)(=O)c2ccc(C(F)(F)F)cc2)c1 [Compound 179, 2-((E)-{[(3-chlorophenyl)acetyl]hydrazono}methyl)-5-methylphenyl 4-(trifluoromethyl)benzenesulfonate]",> 50 µM
12,"COc1cccc(CC(=O)N/N=C/c2cccc(Cl)c2OS(=O)(=O)c2ccc(C)cc2)c1 [Compound 180, 2-chloro-6-((E)-{[(3-methoxyphenyl)acetyl]hydrazono}methyl)-phenyl 4-methylbenzenesulfonate]",< 5 µM
13,"COc1cccc(CC(=O)N/N=C/c2cccnc2OS(=O)(=O)c2ccc(C)cc2)c1 [Compound 181, 3-((E)-{2-[2-(3-methoxyphenyl)acetyl]hydrazono}methyl)-pyridin-2-yl 4-methylbenzenesulfonate]",5 to 50 µM
14,"COc1cccc(CC(=O)N/N=C/c2ccccc2OS(=O)(=O)c2ccc3nsnc3c2)c1 [Compound 182, 2-((E)-{2-[2-(3-methoxyphenyl)acetyl]hydrazono}methyl)-phenyl 2,1,3-benzothiadiazole-5-sulfonate]",< 5 µM
15,"CCCCCc1ccc(S(=O)(=O)Oc2ccccc2/C=N/NC(=O)Cc2cccc(OC)c2)cc1 [Compound 183, 2-((E)-{2-[2-(3-methoxyphenyl)acetyl]hydrazono}methyl)-phenyl 4-pentylbenzenesulfonate]",< 5 µM
16,"CCCc1ccc(S(=O)(=O)Oc2ccccc2/C=N/NC(=O)Cc2cccc(OC)c2)cc1 [Compound 184, 2-((E)-{2-[2-(3-methoxyphenyl)acetyl]hydrazono}methyl)-phenyl 4-propylbenzenesulfonate]",< 5 µM
17,"COc1cccc(CC(=O)N/N=C/c2ncccc2OS(=O)(=O)c2ccc(C)cc2)c1 [Compound 185, 2-((E)-{2-[2-(3-methoxyphenyl)acetyl]hydrazono}methyl)-pyridin-3-yl 4-methylbenzenesulfonate]",< 5 µM
18,"COc1cccc(CC(=O)N/N=C/c2ccccc2OS(=O)(=O)c2ccc(OC(C)C)cc2)c1 [Compound 186, 2-((E)-{2-[2-(3-methoxyphenyl)acetyl]hydrazono}methyl)-phenyl 4-isopropoxybenzenesulfonate]",< 5 µM
19,"COc1cccc(CC(=O)N/N=C/c2ccccc2OS(=O)(=O)c2cc(Cl)sc2Cl)c1 [Compound 187, 2-((E)-{2-[2-(3-methoxyphenyl)acetyl]hydrazono}methyl)-phenyl 2,5-dichlorothiophene-3-sulfonate]",< 5 µM
20,"COc1cccc(CC(=O)N/N=C/c2ccccc2OS(=O)(=O)c2cnn(-c3ccccc3)c2C)c1 [Compound 188, 2-((E)-{2-[2-(3-methoxyphenyl)acetyl]hydrazono}methyl)-phenyl 5-methyl-1-phenyl-1H-pyrazole-4-sulfonate]",< 5 µM
21,"COc1cccc(CC(=O)N/N=C/c2ccccc2OS(=O)(=O)Cc2cccc(C(F)(F)F)c2)c1 [Compound 189, 2-((E)-{2-[2-(3-methoxyphenyl)acetyl]hydrazono}methyl)-phenyl [3-(trifluoromethyl)phenyl]methanesulfonate]",> 50 µM
22,"COc1cccc(CC(=O)N/N=C/c2ccccc2OS(=O)(=O)c2ccc(Br)s2)c1 [Compound 190, 2-((E)-{2-[2-(3-methoxyphenyl)acetyl]hydrazono}methyl)-phenyl 5-bromothiophene-2-sulfonate]",< 5 µM
23,"COc1cccc(CC(=O)N/N=C/c2ccccc2OS(=O)(=O)c2ccc(Oc3ccccc3)cc2)c1 [Compound 191, 2-((E)-{2-[2-(3-methoxyphenyl)acetyl]hydrazono}methyl)-phenyl 4-phenoxybenzenesulfonate]",> 50 µM
24,"COc1cccc(CC(=O)N/N=C/c2ccccc2OS(=O)(=O)c2ccc(-c3cc(C(F)(F)F)on3)s2)c1 [Compound 192, 2-((E)-{2-[2-(3-methoxyphenyl)acetyl]hydrazono}methyl)-phenyl 5-[5-(trifluoromethyl)isoxazol-3-yl]thiophene-2-sulfonate]",< 5 µM
25,"COc1cccc(CC(=O)N/N=C/c2c(Cl)cccc2OS(=O)(=O)c2ccc(C(F)(F)F)cc2)c1 [Compound 193, 3-chloro-2-((E)-{[(3-methoxyphenyl)acetyl]hydrazono}methyl)-phenyl 4-(trifluoromethyl)benzenesulfonate]",< 5 µM
